Source: ChEMBL document CHEMBL1201862, “PubChem BioAssay data set” (2004)
The source made the active and inactive calls.

Tests used:
[1] = target: Heat shock protein HSP 90-alpha (Homo sapiens, UniProt P07900); type: functional, organism-based
[2] = target: T1, Replicative DNA helicase DnaB (Mycobacterium tuberculosis, UniProt P9WMR3); test: DnaB intein splicing inhibitors, dose response, biochemical, cell-free fluorescence (AID 449749); type: functional
T1 sequence (P9WMR3 whole entry): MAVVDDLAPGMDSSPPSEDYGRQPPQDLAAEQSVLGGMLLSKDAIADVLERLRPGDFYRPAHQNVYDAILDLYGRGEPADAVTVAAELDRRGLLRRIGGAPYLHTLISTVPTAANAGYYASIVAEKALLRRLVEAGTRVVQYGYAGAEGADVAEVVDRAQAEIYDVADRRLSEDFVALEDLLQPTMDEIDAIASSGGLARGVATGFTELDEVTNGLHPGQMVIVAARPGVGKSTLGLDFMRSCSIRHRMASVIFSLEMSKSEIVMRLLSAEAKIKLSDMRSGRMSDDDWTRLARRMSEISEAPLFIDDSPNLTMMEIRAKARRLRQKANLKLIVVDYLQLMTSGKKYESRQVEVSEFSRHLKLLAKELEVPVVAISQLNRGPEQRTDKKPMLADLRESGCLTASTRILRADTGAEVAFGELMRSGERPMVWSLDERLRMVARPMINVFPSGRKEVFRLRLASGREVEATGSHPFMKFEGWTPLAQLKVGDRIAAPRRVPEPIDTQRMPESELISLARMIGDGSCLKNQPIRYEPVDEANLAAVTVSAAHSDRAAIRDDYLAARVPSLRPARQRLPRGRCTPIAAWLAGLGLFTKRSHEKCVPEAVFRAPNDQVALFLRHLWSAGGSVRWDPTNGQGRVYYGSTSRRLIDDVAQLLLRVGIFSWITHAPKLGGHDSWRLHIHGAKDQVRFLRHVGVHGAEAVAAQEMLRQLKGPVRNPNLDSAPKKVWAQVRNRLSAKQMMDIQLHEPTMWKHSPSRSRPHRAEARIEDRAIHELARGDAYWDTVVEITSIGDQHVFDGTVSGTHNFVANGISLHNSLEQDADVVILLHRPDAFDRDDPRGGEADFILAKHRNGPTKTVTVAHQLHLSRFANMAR

[3] = target: T2, Mannose-6-phosphate isomerase (Homo sapiens, UniProt P34949); test: MPI inhibition at elevated mannose 6-phosphate – biochemical, fluorescence intensity, high mannose 6-phosphate, primary screen (AID 1220)
T2 sequence (P34949 whole entry): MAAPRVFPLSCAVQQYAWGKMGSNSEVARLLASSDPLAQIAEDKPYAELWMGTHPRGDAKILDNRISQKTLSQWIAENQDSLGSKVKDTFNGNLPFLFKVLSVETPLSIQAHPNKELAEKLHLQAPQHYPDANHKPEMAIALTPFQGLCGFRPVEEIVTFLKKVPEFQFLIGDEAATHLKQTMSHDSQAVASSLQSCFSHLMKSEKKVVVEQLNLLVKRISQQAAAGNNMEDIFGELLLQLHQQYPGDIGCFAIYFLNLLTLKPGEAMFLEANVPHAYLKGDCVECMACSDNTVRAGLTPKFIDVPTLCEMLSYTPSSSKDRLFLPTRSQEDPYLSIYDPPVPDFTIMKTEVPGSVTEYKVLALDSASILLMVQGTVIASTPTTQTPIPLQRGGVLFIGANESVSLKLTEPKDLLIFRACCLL

Streptokinase A = target: T3, Streptokinase A (Streptococcus pyogenes serotype M1, UniProt P10520); test: viability-normalized secreted streptokinase activity reduction – plasminogen activation absorbance, OD405, dose response (AID 1914); type: functional, Streptococcus pyogenes M1 GAS;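 note: secreted streptokinase activity via plasminogen activation per viability signal from cell pellet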
T3 sequence (P10520 whole entry): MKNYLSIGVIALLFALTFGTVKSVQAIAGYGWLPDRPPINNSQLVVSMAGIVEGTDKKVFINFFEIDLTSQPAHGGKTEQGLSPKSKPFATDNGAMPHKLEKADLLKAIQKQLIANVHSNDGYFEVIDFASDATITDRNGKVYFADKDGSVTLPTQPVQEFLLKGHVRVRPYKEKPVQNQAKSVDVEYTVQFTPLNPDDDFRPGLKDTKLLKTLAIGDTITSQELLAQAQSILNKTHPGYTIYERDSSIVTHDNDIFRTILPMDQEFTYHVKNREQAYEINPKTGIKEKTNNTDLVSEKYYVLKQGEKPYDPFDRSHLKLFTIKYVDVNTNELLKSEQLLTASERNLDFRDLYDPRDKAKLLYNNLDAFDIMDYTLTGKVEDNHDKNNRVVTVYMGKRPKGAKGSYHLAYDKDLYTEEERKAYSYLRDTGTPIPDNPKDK

Protein RecA = target: T4, Protein RecA (Mycobacterium tuberculosis, UniProt P9WHJ3); test: Fluorescence Cell-Free Homogeneous Dose Retest to Identify Inhibitors of RecA-Intein Splicing Activity. [Related pubchem assays (depositor defined):AID2097, AID2223, AID489010, AID492950]; type: functional
T4 sequence (P9WHJ3 whole entry): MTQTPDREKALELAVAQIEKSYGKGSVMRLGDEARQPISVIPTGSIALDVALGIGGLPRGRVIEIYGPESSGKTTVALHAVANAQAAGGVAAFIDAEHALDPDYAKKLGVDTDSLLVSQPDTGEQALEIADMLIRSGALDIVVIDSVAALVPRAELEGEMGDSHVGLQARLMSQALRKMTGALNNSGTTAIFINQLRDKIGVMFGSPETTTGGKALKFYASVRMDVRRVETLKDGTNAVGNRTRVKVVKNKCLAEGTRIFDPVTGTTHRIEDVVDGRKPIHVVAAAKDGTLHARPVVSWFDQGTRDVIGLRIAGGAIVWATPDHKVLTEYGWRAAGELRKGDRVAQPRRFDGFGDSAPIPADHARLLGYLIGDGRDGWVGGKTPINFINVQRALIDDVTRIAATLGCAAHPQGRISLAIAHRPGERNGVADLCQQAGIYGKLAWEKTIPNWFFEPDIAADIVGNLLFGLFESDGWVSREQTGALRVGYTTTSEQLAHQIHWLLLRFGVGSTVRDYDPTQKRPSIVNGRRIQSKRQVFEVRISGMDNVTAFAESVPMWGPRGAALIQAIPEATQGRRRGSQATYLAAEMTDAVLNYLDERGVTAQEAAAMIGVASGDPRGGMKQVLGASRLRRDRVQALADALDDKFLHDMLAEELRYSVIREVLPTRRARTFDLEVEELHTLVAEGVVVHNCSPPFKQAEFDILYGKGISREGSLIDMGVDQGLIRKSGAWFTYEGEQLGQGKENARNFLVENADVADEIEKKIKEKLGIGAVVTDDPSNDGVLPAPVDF

Streptococcus = test: GAS UMAA2166 growth inhibition – luminescence, BacTiterGlo, counter-screen for streptokinase expression inhibitor project, dose response (AID 1915); type: functional, organism-based;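 note: potency for reduction of bacterial viability or growth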
INS1 = test: INS-1E survival protection against cytokine death – cell-based, luminescence, retest, dose response (AID 449756); type: functional; conditions: Rattus norvegicus, INS1;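 note: cell death triggered by IL-1 beta plus TNF-alpha plus IFN-gamma mixture; protective hits raise ATP signal compared with cytokine alone wells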
[4] = viability of HCT116 lacking mutant beta-catenin – cell-based, human colon tumor, dose response (AID 1045); type: functional;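 note: HCT116 colon tumor cells with beta catenin knocked out; cells exposed to compound for 60 hours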
[5] = NIH3T3 cell viability loss – ATP luminescence, mouse fibroblasts, counter-screen, dose response (AID 2010); type: functional, cell-based;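 note: cells exposed to compound for about 90 hours before reading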
[6] = test system: Streptococcus sp. 'group A'; test: Streptococcus pyogenes SK(-)GAS viability under kanamycin – luminescence, BacTiterGlo, confirmation, counter-screen for streptokinase expression inhibitor project, dose response (AID 1900); type: functional, organism-based
Vero = test: viability of Vero cells under compound – cytotoxicity control for flavivirus capping enzyme inhibitors (AID 588742); type: functional; conditions: Chlorocebus sabaeus
[7] = Trypanosoma cruzi growth suppression in host cells – NIH3T3 host cells, beta-gal luminescence, confirmation (AID 2044); type: functional, cell-based;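 note: intracellular parasites grown in NIH/3T3 mouse fibroblasts as host cells; luminescent beta-galactosidase reporter signal from transgenic T. cruzi replicating inside host cells; inhibitors lower the luminescence signal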
[8] = viability of PTEN-deleted HCT116 cells – cell-based, HCT116 PTEN knockout, dose response (AID 1047); type: functional;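 note: HCT116 colon tumor cells with PTEN knocked out; cells exposed to compound for 60 hours before readout; potency for loss of cell viability measured by luminescence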
Procathepsin L = Procathepsin L (Homo sapiens, UniProt P07711); test: CTSL1 protease inhibition – biochemical, QFRET, 1536-well, counter-screen for M1/M17 aminopeptidase inhibitor project, dose response (AID 2214)
Aminopeptidase N = target: T5, Aminopeptidase N (Plasmodium falciparum FcB1/Columbia, UniProt O96935); test: malaria alanyl aminopeptidase activity blockers – biochemical, fluorogenic H-Leu-NHMec substrate, 1536-well (AID 1445); parameters: species or system Plasmodium falciparum 3D7, 3D7
T5 sequence (O96935 whole entry): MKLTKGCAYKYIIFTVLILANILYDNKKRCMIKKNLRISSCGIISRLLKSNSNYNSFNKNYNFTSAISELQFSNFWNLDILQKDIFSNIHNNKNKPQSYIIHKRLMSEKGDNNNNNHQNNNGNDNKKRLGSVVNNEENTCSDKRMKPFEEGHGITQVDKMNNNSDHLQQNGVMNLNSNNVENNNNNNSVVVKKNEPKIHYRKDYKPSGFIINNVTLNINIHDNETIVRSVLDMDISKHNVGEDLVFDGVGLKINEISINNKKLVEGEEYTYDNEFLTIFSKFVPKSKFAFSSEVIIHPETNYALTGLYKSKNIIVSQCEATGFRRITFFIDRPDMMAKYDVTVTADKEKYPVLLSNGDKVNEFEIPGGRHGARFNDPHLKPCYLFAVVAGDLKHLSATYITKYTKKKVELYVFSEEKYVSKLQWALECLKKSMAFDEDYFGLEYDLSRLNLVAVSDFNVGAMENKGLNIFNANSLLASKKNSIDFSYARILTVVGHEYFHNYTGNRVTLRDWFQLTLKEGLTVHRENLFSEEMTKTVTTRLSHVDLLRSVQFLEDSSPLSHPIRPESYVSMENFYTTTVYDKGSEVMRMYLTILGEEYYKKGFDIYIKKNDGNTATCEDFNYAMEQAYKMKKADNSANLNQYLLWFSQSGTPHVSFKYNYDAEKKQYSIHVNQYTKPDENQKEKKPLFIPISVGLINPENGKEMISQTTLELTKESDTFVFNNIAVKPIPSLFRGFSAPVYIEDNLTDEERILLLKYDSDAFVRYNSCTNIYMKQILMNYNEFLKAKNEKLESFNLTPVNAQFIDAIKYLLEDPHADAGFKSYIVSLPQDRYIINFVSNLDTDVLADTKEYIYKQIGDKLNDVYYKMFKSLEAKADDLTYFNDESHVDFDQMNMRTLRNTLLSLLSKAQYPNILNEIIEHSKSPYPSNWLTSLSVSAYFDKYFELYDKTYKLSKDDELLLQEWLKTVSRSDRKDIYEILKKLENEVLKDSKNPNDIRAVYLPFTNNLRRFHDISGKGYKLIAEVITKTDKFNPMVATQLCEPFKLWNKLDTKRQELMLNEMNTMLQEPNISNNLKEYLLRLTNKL

Genome polyprotein = Genome polyprotein (dengue virus type 2, UniProt P29990); test: flavivirus cap methylation enzyme inhibition – biochemical, confirmation dose response, primary screen (AID 588689); type: functional
Aspartyl aminopeptidase = target: T6, Aspartyl aminopeptidase (Plasmodium falciparum 3D7, UniProt Q8I2J3); test: Counterscreen for inhibitors of M1 and M17 aminopeptidases: QFRET-based biochemical high throughput dose response assay for inhibitors of the Plasmodium falciparum M18 Aspartyl Aminopeptidase (PFM18AAP). [Related PubChem assays: 1619 (Screening assay (M17LAP inhibitors).), 1445 (Screening assay (M1AAP inhibitors).)]
T6 sequence (Q8I2J3 whole entry): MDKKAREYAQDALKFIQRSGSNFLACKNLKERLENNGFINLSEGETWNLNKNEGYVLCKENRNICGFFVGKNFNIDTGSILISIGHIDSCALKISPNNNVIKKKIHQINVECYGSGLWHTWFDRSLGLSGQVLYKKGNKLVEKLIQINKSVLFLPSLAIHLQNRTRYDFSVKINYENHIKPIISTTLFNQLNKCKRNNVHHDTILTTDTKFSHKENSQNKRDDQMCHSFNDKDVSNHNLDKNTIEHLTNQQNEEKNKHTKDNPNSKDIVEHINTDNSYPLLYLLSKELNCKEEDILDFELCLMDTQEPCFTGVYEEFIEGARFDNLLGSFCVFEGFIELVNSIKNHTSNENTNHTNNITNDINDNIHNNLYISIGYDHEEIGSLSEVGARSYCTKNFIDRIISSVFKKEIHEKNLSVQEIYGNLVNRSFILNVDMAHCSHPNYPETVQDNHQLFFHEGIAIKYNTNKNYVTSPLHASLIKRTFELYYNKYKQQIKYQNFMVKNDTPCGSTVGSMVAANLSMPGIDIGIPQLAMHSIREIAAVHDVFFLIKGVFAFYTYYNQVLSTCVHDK

Sequence of Procathepsin L (P07711 whole entry): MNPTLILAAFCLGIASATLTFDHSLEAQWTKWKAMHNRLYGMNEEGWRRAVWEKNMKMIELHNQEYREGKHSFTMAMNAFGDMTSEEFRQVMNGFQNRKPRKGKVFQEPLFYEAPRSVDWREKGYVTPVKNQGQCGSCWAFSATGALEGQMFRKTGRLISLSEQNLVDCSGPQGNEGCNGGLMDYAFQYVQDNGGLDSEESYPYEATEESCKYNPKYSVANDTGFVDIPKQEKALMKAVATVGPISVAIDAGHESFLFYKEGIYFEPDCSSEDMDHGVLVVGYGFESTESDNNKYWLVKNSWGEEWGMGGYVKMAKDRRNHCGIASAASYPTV
Sequence of Genome polyprotein (P29990 2492-3391 limits assumed): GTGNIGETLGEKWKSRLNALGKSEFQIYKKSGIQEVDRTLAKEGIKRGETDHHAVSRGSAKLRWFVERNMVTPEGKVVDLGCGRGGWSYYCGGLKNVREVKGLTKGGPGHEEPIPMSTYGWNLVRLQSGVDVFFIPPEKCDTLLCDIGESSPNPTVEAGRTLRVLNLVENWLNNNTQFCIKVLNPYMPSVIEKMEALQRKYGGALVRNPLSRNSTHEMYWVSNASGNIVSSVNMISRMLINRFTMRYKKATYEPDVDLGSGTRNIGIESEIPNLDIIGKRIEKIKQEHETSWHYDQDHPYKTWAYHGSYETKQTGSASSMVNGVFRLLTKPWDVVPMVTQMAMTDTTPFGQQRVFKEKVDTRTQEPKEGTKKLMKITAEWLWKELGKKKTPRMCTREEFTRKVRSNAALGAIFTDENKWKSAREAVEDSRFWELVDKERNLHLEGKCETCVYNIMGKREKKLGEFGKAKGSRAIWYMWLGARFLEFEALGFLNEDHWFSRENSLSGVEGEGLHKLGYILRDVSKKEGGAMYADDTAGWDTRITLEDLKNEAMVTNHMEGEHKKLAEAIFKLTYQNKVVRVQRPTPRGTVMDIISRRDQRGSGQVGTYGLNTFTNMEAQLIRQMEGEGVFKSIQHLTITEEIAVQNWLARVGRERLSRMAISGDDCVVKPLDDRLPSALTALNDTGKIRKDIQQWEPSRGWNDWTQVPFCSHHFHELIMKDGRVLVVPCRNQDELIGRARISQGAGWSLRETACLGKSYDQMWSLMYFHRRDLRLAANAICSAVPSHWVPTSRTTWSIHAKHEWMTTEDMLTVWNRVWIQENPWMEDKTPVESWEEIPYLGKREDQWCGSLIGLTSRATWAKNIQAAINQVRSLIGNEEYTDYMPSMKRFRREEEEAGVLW

Structure (SMILES)	AC50 [1]	AC50 [2]	IC50 [3]	EC50 (Streptokinase A)	EC50 (Protein RecA)	EC50 (Streptococcus)	AC50 (INS1)	EC50 [4]	EC50 [5]	EC50 [6]	CC50 (Vero)	EC50 [7]	EC50 [8]	IC50 (Procathepsin L)	IC50 (Aminopeptidase N)	IC50 (Genome polyprotein)	IC50 (Aspartyl aminopeptidase)
CC(=O)C1=C(c2ccc(Br)cc2)C(=O)c2ccccc2C1=O	7.99 µM (active)	3.05 µM (active)	3.13 µM (active)	7.12 µM (active)	1.94 µM (active)	9.4 µM (active)	1.06 µM (active)	1.81 µM (active)	2.42 µM (active)	1 µM (active)	9.68 µM (active)	2.01 µM (active)	1.98 µM (active)	–	–	–	–
O=C1/C(=C/c2cccs2)SC(=S)N1NS(=O)(=O)c1ccccc1	–	–	–	–	–	–	–	–	–	–	–	–	–	> 59.6 µM (not active)	16.6 µM (active)	57.4 µM (active)	> 73.5 µM (not active)
